Laboratory results as given in patent US20250206730A1 (AUTOTELIC BIO INC., priority 2022, published 2025).
pIC50: −log10 of the molar value.

Tests used:
ALK5 kinase = biological target: T1, ALK5 kinase (Homo sapiens, UniProt P36897); assay: LanthaScreen Eu Kinase Binding Assay; details: Kinase Tracer 178, Eu-anti-GST Antibody, read-out: IC50 Enzyme
T1 sequence (P36897 34-503): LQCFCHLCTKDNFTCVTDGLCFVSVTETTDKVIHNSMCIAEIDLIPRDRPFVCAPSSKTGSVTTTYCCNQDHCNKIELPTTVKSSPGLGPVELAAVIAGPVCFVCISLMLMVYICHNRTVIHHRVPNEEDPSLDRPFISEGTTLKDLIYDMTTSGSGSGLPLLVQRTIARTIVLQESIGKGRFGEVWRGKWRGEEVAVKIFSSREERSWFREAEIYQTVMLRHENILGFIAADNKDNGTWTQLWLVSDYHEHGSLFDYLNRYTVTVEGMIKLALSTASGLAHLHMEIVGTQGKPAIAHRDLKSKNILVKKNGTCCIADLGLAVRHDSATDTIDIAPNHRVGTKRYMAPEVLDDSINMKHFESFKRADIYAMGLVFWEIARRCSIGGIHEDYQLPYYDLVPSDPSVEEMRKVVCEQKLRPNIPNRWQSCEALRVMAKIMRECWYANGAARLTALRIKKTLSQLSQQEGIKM
Method: [Example 1] LanthaScreen Eu Kinase Binding Assay
4 μL of 4× Test Compound in 4% DMSO and 4 μL of 4× Kinase in Kinase buffer were added to wells (low volume, white 384-well plate (Greiner Cat. #784207)). The plate was shaken for 30 seconds, centrifuged for 10 seconds at 1000 rpm, and incubated at RT for 30 minutes. Then, 4 μL of 4× Eu-anti-GST Antibody and 4 μL of 4× Kinase Tracer 178 were added to the wells. The plate was shaken for 30 seconds, centrifuged for 10 seconds at 1000 rpm, and incubated at RT for 60 minutes. Fluorescence was measured by a plate reader, Biotek Synergy H1 (Vermont, USA) under the following conditions. • Excitation: 340 nm (3 nm bandpass) • Kinase tracer emission: 665 nm (10 nm bandpass) • Eu Ab emission: 615 nm (10 nm bandpass) • Emission ratio=665 nm (tracer)/615 nm (Eu Ab) • The higher the binding affinity of compound to ALK5 kinase is, the less the emission ratio is.

TGF-β signaling = assay: Assay for evaluating cellular inhibition of TGF-β signaling, 4T1 (SBE-luc2P) luciferase reporter; assay type: cell-based; details: Mus musculus, 4T1, 4T1 (SBE-luc2P) transient pool, 0.2% FBS, 2 h pre-treatment, TGF-β1 2 ng/mL 24 h; read-out: IC50 4T1 Cell
In short: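 Luminescence from SMAD-binding-element luciferase was measured after 24 h of 2 ng/mL TGF-β1 at 37 °C, following 2 h compound pre-treatment. HEK293 stable reporter cells were used at 2.5×10^4/well in 0.5% FBS (~80% confluent); the 4T1 SBE-luc2P transient pool at 6×10^3/well in 0.2% FBS (~60% confluent).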

pIC50 (ALK5 kinase) | pIC50 (TGF-β signaling) | SMILES
> 7.00 | < 7.00 | CC(C)c1nc(-c2ccccc2)c(Oc2ccnc(Nc3ccc(C(C)(C)O)nc3)c2)s1 [A-224, 2-(5-((4-((2-Isopropyl-4-phenylthiazol-5-yl)oxy)pyridin-2-yl)amino)pyridin-2-yl)propan-2-ol]
> 7.00 | > 7.00 | Cc1cccc(-c2nc(C(F)(F)F)sc2Oc2ccnc(Nc3cccc(C(N)=O)c3)c2)n1 [A-291, 3-((4-((4-(6-Methylpyridin-2-yl)-2-(trifluoromethyl)thiazol-5-yl)oxy)pyridin-2-yl)amino)benzamide]
> 7.00 | < 7.00 | Cc1cccc(-c2nc(N)sc2Oc2ccnc(Nc3ccc(C(=O)O)cc3)c2)n1 [A-248, 4-((4-((2-Amino-4-(6-methylpyridin-2-yl)thiazol-5-yl)oxy)pyridin-2-yl)amino)benzoic acid]
> 7.00 | > 7.00 | NC(=O)c1ccc(Nc2cc(Oc3sc(C(F)(F)F)nc3-c3ccccc3)ccn2)cc1 [A-147, 4-((4-((4-Phenyl-2-(trifluoromethyl)thiazol-5-yl)oxy)pyridin-2-yl)amino)benzamide]
< 7.00 | < 7.00 | CC(C)c1nc(-c2ccccc2)c(Oc2ccnc(Nc3cccc(S(N)(=O)=O)c3)c2)s1 [A-218, 3-((4-((2-Isopropyl-4-phenylthiazol-5-yl)oxy)pyridin-2-yl)amino)benzenesulfonamide]
> 7.00 | > 7.00 | Cc1nc(-c2ccccc2)c(Oc2ccnc(Nc3cc(C(N)=O)ccn3)c2)s1 [A-93, 2-((4-((2-Methyl-4-phenylthiazol-5-yl)oxy)pyridin-2-yl)amino)isonicotinamide]
> 7.00 | < 7.00 | O=C(O)c1ccc(Nc2cc(Oc3sc(C4CCCC4)nc3-c3ccccc3)ccn2)nc1 [A-174, 6-((4-((2-Cyclopentyl-4-phenylthiazol-5-yl)oxy)pyridin-2-yl)amino)nicotinic acid]
> 7.00 | > 7.00 | Cc1cccc(-c2nc(C3CC3)sc2Oc2ccnc(Nc3ccc(C(N)=O)cn3)c2)n1 [A-275]
> 7.00 | > 7.00 | Cc1cccc(-c2nc(N(C)C)sc2Oc2ccnc(Nc3cccc(S(N)(=O)=O)c3)c2)n1 [A-283, 3-((4-((2-(Dimethylamino)-4-(6-methylpyridin-2-yl)thiazol-5-yl)oxy)pyridin-2-yl)amino)benzenesulfonamide]
> 7.00 | > 7.00 | CCc1nc(-c2cccc(C)n2)c(Oc2ccnc(Nc3cc(C(N)=O)ccn3)c2)s1 [A-267, 2-((4-((2-Ethyl-4-(6-methylpyridin-2-yl)thiazol-5-yl)oxy)pyridin-2-yl)amino)isonicotinamide]
> 7.00 | > 7.00 | Cc1nc(-c2ccccc2)c(Oc2ccnc(Nc3cccc(CC#N)c3)c2)s1 [A-111, 2-(3-((4-((2-Methyl-4-phenylthiazol-5-yl)oxy)pyridin-2-yl)amino)phenyl)acetonitrile]
> 7.00 | > 7.00 | Cc1nc(-c2ccccc2)c(Oc2ccnc(Nc3cccc(C(N)=O)c3)c2)s1 [A-60, 3-((4-((2-Methyl-4-phenylthiazol-5-yl)oxy)pyridin-2-yl)amino)benzamide]
> 7.00 | < 7.00 | Cc1nc(-c2ccccc2)c(Oc2ccnc(Nc3ccnc(C(C)(C)O)c3)c2)s1 [A-59, 2-(4-((4-((2-Methyl-4-phenylthiazol-5-yl)oxy)pyridin-2-yl)amino)pyridin-2-yl)propan-2-ol]
> 7.00 | > 7.00 | NC(=O)c1cccc(Nc2cc(Oc3sc(N)nc3-c3ccccc3)ccn2)c1 [A-2, 3-((4-((2-Amino-4-phenylthiazol-5-yl)oxy)pyridin-2-yl)amino)benzamide]
> 7.00 | < 7.00 | COc1nc(-c2ccccc2)c(Oc2ccnc(Nc3cccc(C(N)=O)c3)c2)s1 [A-143, 3-((4-((2-Methoxy-4-phenylthiazol-5-yl)oxy)pyridin-2-yl)amino)benzamide]
> 7.00 | > 7.00 | CS(=O)(=O)Nc1ccc(Nc2cc(Oc3sc(C4CC4)nc3-c3ccccc3)ccn2)cc1 [A-128, N-(4-((4-((2-Cyclopropyl-4-phenylthiazol-5-yl)oxy)pyridin-2-yl)amino)phenyl)methanesulfonamide]

pIC50 (ALK5 kinase) | pIC50 (TGF-β signaling) | SMILES
> 7.00 | > 7.00 | Cc1cccc(-c2nc(N)sc2Oc2ccnc(Nc3cccc(C(=O)O)c3)c2)n1 [A-249, 3-((4-((2-Amino-4-(6-methylpyridin-2-yl)thiazol-5-yl)oxy)pyridin-2-yl)amino)benzoic acid]
< 7.00 | < 7.00 | CNc1nc(-c2ccc3ccccc3c2)c(Oc2ccnc(Nc3cccc(S(N)(=O)=O)c3)c2)s1 [A-233, 3-((4-((2-(Methylamino)-4-(naphthalen-2-yl)thiazol-5-yl)oxy)pyridin-2-yl)amino)benzenesulfonamide]
> 7.00 | > 7.00 | Nc1nc(-c2ccccc2)c(Oc2ccnc(Nc3cccc(S(N)(=O)=O)c3)c2)s1 [A-1, 3-((4-((2-Amino-4-phenylthiazol-5-yl)oxy)pyridin-2-yl)amino)benzenesulfonamide]
> 7.00 | < 7.00 | O=C(O)c1cccc(Nc2cc(Oc3sc(C(F)(F)F)nc3-c3ccccc3)ccn2)c1 [A-151, 3-((4-((4-Phenyl-2-(trifluoromethyl)thiazol-5-yl)oxy)pyridin-2-yl)amino)benzoic acid]
> 7.00 | < 7.00 | Cc1nc(-c2ccccc2)c(Oc2ccnc(Nc3ccc(C(C)(C)O)nc3)c2)s1 [A-65, 2-(5-((4-((2-Methyl-4-phenylthiazol-5-yl)oxy)pyridin-2-yl)amino)pyridin-2-yl)propan-2-ol]
> 7.00 | < 7.00 | CC(C)(O)c1ccc(Nc2cc(Oc3sc(C4CC4)nc3-c3ccccc3)ccn2)cn1 [A-121, 2-(5-((4-((2-Cyclopropyl-4-phenylthiazol-5-yl)oxy)pyridin-2-yl)amino)pyridin-2-yl)propan-2-ol]
> 7.00 | > 7.00 | CN(C)c1nc(-c2ccccc2)c(Oc2ccnc(Nc3cccc(C(N)=O)n3)c2)s1 [A-160, 6-((4-((2-(Dimethylamino)-4-phenylthiazol-5-yl)oxy)pyridin-2-yl)amino)picolinamide]
< 7.00 | < 7.00 | CC(C)c1nc(-c2ccccc2)c(Oc2ccnc(Nc3cccc(C(C)(C)O)c3)c2)s1 [A-219, 2-(3-((4-((2-Isopropyl-4-phenylthiazol-5-yl)oxy)pyridin-2-yl)amino)phenyl)propan-2-ol]
> 7.00 | > 7.00 | CCc1nc(-c2cccc(C)n2)c(Oc2ccnc(Nc3cncc(C(=O)NC)c3)c2)s1 [A-262, 5-((4-((2-Ethyl-4-(6-methylpyridin-2-yl)thiazol-5-yl)oxy)pyridin-2-yl)amino)-N-methylnicotinamide]
> 7.00 | > 7.00 | CCc1nc(-c2cccc(C)n2)c(Oc2ccnc(Nc3cccc(C(=O)NC)n3)c2)s1 [A-256, 6-((4-((2-Ethyl-4-(6-methylpyridin-2-yl)thiazol-5-yl)oxy)pyridin-2-yl)amino)-N-methylpicolinamide]
> 7.00 | > 7.00 | CNc1nc(-c2cccc(C)n2)c(Oc2ccnc(Nc3cccc(S(N)(=O)=O)c3)c2)s1 [A-292, 3-((4-((2-(Methylamino)-4-(6-methylpyridin-2-yl)thiazol-5-yl)oxy)pyridin-2-yl)amino)benzenesulfonamide]
> 7.00 | < 7.00 | O=C(O)c1cccc(Nc2cc(Oc3sc(NC4CC4)nc3-c3ccccc3)ccn2)c1 [A-48, 3-((4-((2-(Cyclopropylamino)-4-phenylthiazol-5-yl)oxy)pyridin-2-yl)amino)benzoic acid]
> 7.00 | < 7.00 | COc1nc(-c2ccccc2)c(Oc2ccnc(Nc3cccc(C(C)(C)O)c3)c2)s1 [A-141, 2-(3-((4-((2-Methoxy-4-phenylthiazol-5-yl)oxy)pyridin-2-yl)amino)phenyl)propan-2-ol]
< 7.00 | < 7.00 | CC(C)c1nc(-c2ccccc2)c(Oc2ccnc(Nc3cccc(C(=O)O)n3)c2)s1 [A-217, 6-((4-((2-Isopropyl-4-phenylthiazol-5-yl)oxy)pyridin-2-yl)amino)picolinic acid]
> 7.00 | > 7.00 | CNC(=O)c1ccc(Nc2cc(Oc3sc(C4CC4)nc3-c3ccccc3)ccn2)nc1 [A-133, 6-((4-((2-Cyclopropyl-4-phenylthiazol-5-yl)oxy)pyridin-2-yl)amino)-N-methylnicotinamide]
